The values below come from patent US4539322A, “Dihydropyridine derivatives and their use in treating heart conditions and hypertension” (Pfizer Inc., priority 1982, dated 1985).

The assay relates to rat aorta. Nature of the assay: Inhibition of calcium-induced contraction of isolated rat aorta strips (reduction of response to added calcium chloride in K+-containing saline). Format: cell-based. Conditions: 0.75 h; spirally cut rat aorta strips, 45 millimolar potassium, calcium 2 millimolar, test repeated with compound after 45 minutes; read-out: molar concentration of the compounds required to reduce the response by 50% (IC50). The protocol:
The ability of the compounds to inhibit the movement of calcium into the cell is shown by their effectiveness in reducing the response of isolated heart tissue to an increase in calcium ion concentration in vitro. The test is performed by mounting spirally cut strips of rat aorta with one end fixed and the other attached to a force transducer. The tissue is immersed in a bath of physiological saline solution containing potassium ion s at a concentration of 45 millimolar and no calcium. Calcium chloride is added to the bath with a pipette to give a final calcium ion concentration of 2 millimolar. The change in tension caused by the resulting contraction of the tissue is noted. The bath is drained and replaced with fresh saline solution and, after 45 minutes, the test is repeated with the particular compound under test present in the saline solution. The concentration of compound required to reduce the response by 50% is recorded.

Counter-ions that a name gives are not always drawn.

Take `CCOC(=O)C1=C(COCCN2CCN(C=O)CC2)NC(C)=C(C(=O)OC)C1c1ccccc1Cl` (centres unmarked) [Example 51, 4-(2-chlorophenyl)-3-ethoxycarbonyl-2-[2-(4-formylpiperazin-1-yl)ethoxymethyl]-5-methoxycarbonyl-6-methyl-1,4-dihydropyridine, bisoxalate salt]: the IC50 came to 7.94 nM.

With `CCOC(=O)C1=C(COCCN2CCN(C(=O)[C@@H]3CCC(=O)N3)CC2)NC(C)=C(C(=O)OC)C1c1ccccc1Cl` (stereo partly drawn) [Example 54, 4-(2-chlorophenyl)-3-ethoxycarbonyl-5-methoxycarbonyl-6-methyl-2-[2-(4-[l-5-oxo-pyrrolidin-2-ylcarbonyl]-piperazin-1-yl)ethoxymethyl]-1,4-dihydropyridine, hydrochloride hydrate], the IC50 came to 3.02 nM.

For the compound `CCOC(=O)C1=C(COCCN2CCN(CC(=O)Nc3c(C)cccc3C)CC2)NC(C)=C(C(=O)OC)C1c1ccccc1Cl` (centres unmarked) [Example 38, 4-(2-chlorophenyl)-2-[2-[4-(N-[2,6-dimethylphenyl]carbamoylmethyl)piperazin-1-yl]ethoxymethyl]-3-ethoxycarbonyl-5-methoxycarbonyl-6-methyl-1,4-dihydropyridine], the IC50 was 20.4 nM.

Consider `CCOC(=O)C1=C(COCCN2CCN(C(=O)NC3CC3)CC2)NC(C)=C(C(=O)OC)C1c1ccccc1Cl` (centres unmarked) [Example 18], for which the IC50 worked out at 6.92 nM.

For the compound `CCOC(=O)C1=C(COCCN2CCN(C(=O)NC)CC2)NC(C)=C(C(=O)OC)C1c1ccccc1F` (centres unmarked) [Example 35], the IC50 came out at 19.5 nM.

On to `CCOC(=O)C1=C(COCCN2CCN(C(=N)NC(=O)NC(C)C)CC2)NC(C)=C(C(=O)OC)C1c1ccccc1Cl` (centres unmarked) [Example 64], for which the IC50 was 14 nM.

Regarding `CCOC(=O)C1=C(COCC(C)N2CCN(C(=O)NC)CC2)NC(C)=C(C(=O)OC)C1c1ccccc1Cl` (centres unmarked) [Example 26], the IC50 is 13.5 nM.

For `CCOC(=O)C1=C(COCCN2CCN(C(=O)CC(C)=O)CC2)NC(C)=C(C(=O)OC)C1c1ccccc1Cl` (centres unmarked) [Example 52, 2-[2-(4-acetoacetylpiperazin-1-yl)ethoxymethyl]-4-(2-chlorophenyl)-3-ethoxycarbonyl-5-methoxycarbonyl-6-methyl-1,4-dihydropyridine, hydrochloride hydrate], the IC50 was 9.8 nM.

As for `CCOC(=O)C1=C(COCCN2CCN(C(=O)N(C)C)CC2)NC(C)=C(C(=O)OC)C1c1ccccc1Cl` (centres unmarked) [Example 41, 4-(2-chlorophenyl)-2-[2-(4-[N,N-dimethylcarbamoyl]-piperazin-1-yl)ethoxymethyl]-3-ethoxycarbonyl-5-methoxycarbonyl-6-methyl-1,4-dihydropyridine, hydrochloride salt], the IC50 is 12.9 nM.

Take `CCOC(=O)C1=C(COCCN2CCN(C(=O)Nc3ccccc3)CC2)NC(C)=C(C(=O)OC)C1c1ccccc1Cl` (centres unmarked) [Example 15]: the IC50 was 5.01 nM.

In the case of `CCOC(=O)C1=C(COCCN2CCNCC2)NC(C)=C(C(=O)OC)C1c1ccccc1Cl` (centres unmarked) [Example 55, 4-(2-chlorophenyl)-3-ethoxycarbonyl-5-methoxycarbonyl-6-methyl-2-[2-(piperazin-1-yl)ethoxymethyl]-1,4-dihydropyridine], the IC50 was found to be 155 nM.

On to `CCNC(=O)N1CCN(C(C)COCC2=C(C(=O)OCC)C(c3ccccc3Cl)C(C(=O)OC)=C(C)N2)CC1` (centres unmarked) [Example 27], for which the IC50 worked out at 21 nM.

Turning to `CCOC(=O)C1=C(COCCN2CCN(C(=N)NC(=O)OC)CC2)NC(C)=C(C(=O)OC)C1c1ccccc1Cl` (centres unmarked) [Example 65], the IC50 was found to be 8.1 nM.

On to `CCOC(=O)C1=C(COCCN2CCN(C(=NC)NC#N)CC2)NC(C)=C(C(=O)OC)C1c1ccccc1Cl` (centres unmarked) [Example 1, 4-(2-chlorophenyl)-2-[2-[4-(N-cyano-N'-methyl-amidino)piperazin-1-yl]ethoxymethyl]-3-ethoxycarbonyl-5-methoxy-carbonyl-6-methyl-1,4-dihydropyridine, oxalate salt], for which the IC50 came out at 10 nM.

As for `CCCNC(=O)N1CCN(CCOCC2=C(C(=O)OCC)C(c3ccccc3Cl)C(C(=O)OC)=C(C)N2)CC1` (centres unmarked) [Example 25], the IC50 amounted to 7.76 nM.

`CCOC(=O)C1=C(COCCN2CCN(C(=O)Nc3cccnc3)CC2)NC(C)=C(C(=O)OC)C1c1ccccc1Cl` (centres unmarked) [Example 24]: the IC50 was determined as 14.5 nM.

Regarding `CCOC(=O)C1=C(COCC(C)(C)N2CCN(C(=O)NC)CC2)NC(C)=C(C(=O)OC)C1c1ccccc1Cl` (centres unmarked) [Example 29], the IC50 was 15 nM.

Take `CCOC(=O)C1=C(COCCN2CCN(C(=S)NC)CC2)NC(C)=C(C(=O)OC)C1c1ccccc1Cl` (centres unmarked) [Example 10, 4-(2-chlorophenyl)-3-ethoxycarbonyl-5-methoxy-carbonyl-6-methyl-2-[2-(4-(N-methylthiocarbamoyl)-piperazin-1-yl)ethoxymethyl]-1,4-dihydropyridine, hydrochloride salt]: the IC50 was determined as 6.3 nM.

On to `CCOC(=O)C1=C(COCCN2CCN(CC(N)=O)CC2)NC(C)=C(C(=O)OC)C1c1ccccc1Cl` (centres unmarked) [Example 40], for which the IC50 came out at 10.5 nM.

As to `CCOC(=O)C1=C(COCCN2CCN(C(=NC#N)NC)CC2)NC(C)=C(C(=O)OC)C1c1cccc(Cl)c1Cl` (centres unmarked) [Example 9], the IC50 is 15.1 nM.

Consider `CCOC(=O)C1=C(COCCN2CCN(C(=NC#N)N3CCCC3)CC2)NC(C)=C(C(=O)OC)C1c1ccccc1Cl` (centres unmarked) [Example 2], for which the IC50 was found to be 14 nM.

As to `CCOC(=O)C1=C(COCCN2CCN(C(=NC#N)N(C)C)CC2)NC(C)=C(C(=O)OC)C1c1ccccc1Cl` (centres unmarked) [Example 4], the IC50 is 7 nM.

With `CCOC(=O)C1=C(COCC(C)N2CCNCC2)NC(C)=C(C(=O)OC)C1c1ccccc1Cl` (centres unmarked) [Example 57], the IC50 is 224 nM.

Regarding `CCCCNC(=O)N1CCN(CCOCC2=C(C(=O)OCC)C(c3ccccc3Cl)C(C(=O)OC)=C(C)N2)CC1` (centres unmarked) [Example 19], the IC50 was determined as 15.8 nM.

Consider `CCOC(=O)C1=C(COCCN2CCN(C(=O)COC)CC2)NC(C)=C(C(=O)OC)C1c1ccccc1Cl` (centres unmarked) [Example 46], for which the IC50 turned out to be 6.3 nM.

On to `CCOC(=O)C1=C(COCCN2CCN(C(=O)NC)CC2)NC(C)=C(C(=O)OC)C1c1c(Cl)cccc1Cl` (centres unmarked) [Example 33], for which the IC50 came to 25 nM.

As for `CCOC(=O)C1=C(COCCN2CCN(C(=O)NC)CC2)NC(C)=C(C(=O)OC)C1c1cc(Cl)cc(Cl)c1` (centres unmarked) [Example 32], the IC50 stood at 50 nM.

`CCOC(=O)C1=C(COCCN2CCN(C(=NC#N)NC(C)C)CC2)NC(C)=C(C(=O)OC)C1c1ccccc1Cl` (centres unmarked) [Example 3]: the IC50 is 10 nM.

For `CCOC(=O)C1=C(COCCN2CCN(C(=O)NC(C)(C)C)CC2)NC(C)=C(C(=O)OC)C1c1ccccc1Cl` (centres unmarked) [Example 12], the IC50 was 2 nM.

For `CCOC(=O)C1=C(COCCN2CCN(C(=O)NC)CC2)NC(C)=C(C(=O)OC)C1c1cccc(Cl)c1` (centres unmarked) [Example 34], the IC50 was 17.8 nM.

In the case of `CCOC(=O)C1=C(COCCN2CCN(C(=O)c3ccco3)CC2)NC(C)=C(C(=O)OC)C1c1ccccc1Cl` (centres unmarked) [Example 44], the IC50 is 85.1 nM.

On to `CCOC(=O)C1=C(COCCN2CCN(C(N)=O)CC2)NC(C)=C(C(=O)OC)C1c1ccccc1Cl` (centres unmarked) [Example 14], for which the IC50 stood at 3.72 nM.

Consider `CCOC(=O)C1=C(COCCN2CCN(C(=NC(C)=O)NC(C)=O)CC2)NC(C)=C(C(=O)OC)C1c1ccccc1Cl` (centres unmarked) [Example 66], for which the IC50 was 42 nM.

For `CCOC(=O)C1=C(COCCN2CCN(C(=O)NC(C)C)CC2)NC(C)=C(C(=O)OC)C1c1ccccc1Cl` (centres unmarked) [Example 22], the IC50 worked out at 2.4 nM.

As for `CCOC(=O)C1=C(COCCN2CCN(C(=NS(C)(=O)=O)NC)CC2)NC(C)=C(C(=O)OC)C1c1ccccc1Cl` (centres unmarked) [Example 7], the IC50 worked out at 100 nM.

With `CCOC(=O)C1=C(COCCN2CCN(C(=O)NC)CC2)NC(C)=C(C(=O)OC)C1c1nccs1` (centres unmarked) [Example 36], the IC50 worked out at 1000 nM.

Turning to `CCOC(=O)C1=C(COCCN2CCN(C(=O)NC)CC2)NC(C)=C(C(=O)OC)C1c1cccc(Cl)c1Cl` (centres unmarked) [Example 31], the IC50 was found to be 2.5 nM.

Take `CCOC(=O)C1=C(COCCN2CCN(C(=O)NC)CC2)NC(C)=C(C(=O)OC)C1c1cccc2ccccc12` (centres unmarked) [Example 70B, 3-Ethoxycarbonyl-5-methoxycarbonyl-6-methyl-2-{2-[4-(N-methylcarbamoyl)piperazin-1-yl]ethoxymethyl}4-(1-naphthyl)-1,4-dihydropyridine hydrate]: the IC50 was 89 nM.

For the compound `CCOC(=O)CNC(=O)N1CCN(CCOCC2=C(C(=O)OCC)C(c3ccccc3Cl)C(C(=O)OC)=C(C)N2)CC1` (centres unmarked) [Example 17], the IC50 came to 97 nM.

On to `CCOC(=O)C1=C(COCCN2CCN(C(N)=O)CC2)NC(C)=C(C(=O)OC)C1c1cccc(Cl)c1Cl` (centres unmarked) [Example 37], for which the IC50 turned out to be 7.9 nM.

On to `CCOC(=O)C1=C(COCCN2CCN(S(=O)(=O)N(C)C)CC2)NC(C)=C(C(=O)OC)C1c1ccccc1Cl` (centres unmarked) [Example 42], for which the IC50 stood at 49 nM.

For the compound `CCOC(=O)C1=C(COCCN2CCN(C(=O)NS(=O)(=O)c3ccc(C)cc3)CC2)NC(C)=C(C(=O)OC)C1c1ccccc1Cl` (centres unmarked) [Example 16], the IC50 is 251 nM.

Take `CCOC(=O)C1=C(COCC(C)N2CCN(C(=O)NC(C)C)CC2)NC(C)=C(C(=O)OC)C1c1ccccc1Cl` (centres unmarked) [Example 28]: the IC50 stood at 9.3 nM.

Regarding `CCOC(=O)C1=C(COCCN2CCN(CC(=O)OC)CC2)NC(C)=C(C(=O)OC)C1c1ccccc1Cl` (centres unmarked) [Example 39], the IC50 is 10.5 nM.

Regarding `CCOC(=O)C1=C(COCCN2CCN(C(=O)NC)CC2)NC(C)=C(C(=O)OC)C1c1ccccc1C(F)(F)F` (centres unmarked) [Example 30], the IC50 worked out at 11 nM.

Turning to `CCOC(=O)C1=C(COCCN2CCN(C(=O)OCC)CC2)NC(C)=C(C(=O)OC)C1c1ccccc1Cl` (centres unmarked) [Example 49], the IC50 stood at 10 nM.

Turning to `CCOC(=O)C1=C(COCCN2CCN(C(=NS(=O)(=O)c3ccccc3)NC)CC2)NC(C)=C(C(=O)OC)C1c1ccccc1Cl` (centres unmarked) [Example 8], the IC50 was determined as 18.6 nM.
